Assay results published in patent US20260317312A1, “ISOXAZOLIDINES AS RIPK1 INHIBITORS AND USE THEREOF” (GENZYME CORPORATION, priority 2023, published 2026).

How the values were obtained:
[1] = target: T1, hRIPK1 (aa 1-375) fusion protein (Homo sapiens, UniProt Q13546); assay: Receptor-Interacting Protein Kinase 1 inhibition, ADP Glo assay (conversion of ATP to ADP due to autophosphorylation); assay type: biochemical; conditions: ATP 50 μM, 30 min preincubation, 240 min incubation, room temperature, DMSO 1%
T1 construct: hRIPK1 (aa 1-375) fusion protein
T1 sequence (Q13546 1-375): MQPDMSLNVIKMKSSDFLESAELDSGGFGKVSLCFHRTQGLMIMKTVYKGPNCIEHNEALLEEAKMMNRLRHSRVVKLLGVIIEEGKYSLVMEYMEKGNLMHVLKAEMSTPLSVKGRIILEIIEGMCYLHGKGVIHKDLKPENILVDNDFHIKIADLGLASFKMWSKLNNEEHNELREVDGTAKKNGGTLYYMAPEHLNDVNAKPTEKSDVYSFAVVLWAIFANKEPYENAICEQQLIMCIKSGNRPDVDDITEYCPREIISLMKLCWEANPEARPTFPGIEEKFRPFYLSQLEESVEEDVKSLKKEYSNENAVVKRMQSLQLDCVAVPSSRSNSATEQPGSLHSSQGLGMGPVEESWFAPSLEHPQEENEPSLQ
Outline: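 The readout was ADP-Glo luminescence after a 240 min rt autophosphorylation reaction with 50 μM ATP, following 30 min preincubation of 3.6 μg/ml hRIPK1 (aa 1-375) fusion with compound at 33300-1.69 nM final in 1% DMSO. Values came from Levenberg-Marquardt nonlinear fits.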

U937 cells = assay: Cellular assay in U937 cells to measure activity of RIPK1-inhibitors on cell death (necroptosis); assay type: cell-based; conditions: Homo sapiens, U-937, TNFα/zVAD.fmk induced cell death (necroptosis), overnight (18 to 24 hrs), 37° C., MTS readout

Compound | IC50 [1] [nM] | IC50 (U937 cells) [nM]
CC1(C)OC(=O)N(c2ccc(F)c(OC[C@H]3CC[C@H](C(=O)N4OCC[C@H]4c4cc(F)cc(C#N)c4)CC3)c2)C1=O [Compound 79, trans-3-((S)-2-(4-((5-(5,5-dimethyl-2,4-dioxooxazolidin-3-yl)-2-fluorophenoxy)methyl)cyclohexane-1-carbonyl)isoxazolidin-3-yl)-5-fluorobenzonitrile] | 20 | 9
CN1CC(=O)N(c2ccc(Cl)c(OC[C@H]3CC[C@H](C(=O)N4OCC[C@H]4c4cc(F)cc(C#N)c4)CC3)c2)C1=O [Compound 80, trans-3-((S)-2-(4-((2-chloro-5-(3-methyl-2,5-dioxoimidazolidin-1-yl)phenoxy)methyl)cyclohexane-1-carbonyl)isoxazolidin-3-yl)-5-fluorobenzonitrile] | 164 | 123
CC1(C)OC(=O)N(c2ccc(F)c(O[C@H]3CC[C@@H](C(=O)N4OCC[C@H]4c4cc(F)cc(C#N)c4)CC3)c2)C1=O [Compound 81, cis-3-((S)-2-(4-(5-(5,5-dimethyl-2,4-dioxooxazolidin-3-yl)-2-fluorophenoxy)cyclohexane-1-carbonyl)isoxazolidin-3-yl)-5-fluorobenzonitrile] | 92 | 855
N#Cc1cc(F)cc([C@@H]2CCON2C(=O)[C@H]2CC[C@@H](Oc3ccc(F)c(C#N)c3)CC2)c1 [Compound 82, cis-5-((4-((S)-3-(3-cyano-5-fluorophenyl)isoxazolidine-2-carbonyl)cyclohexyl)oxy)-2-fluorobenzonitrile] | 44 | 385
N#Cc1cc(F)cc(OC[C@H]2CC[C@H](C(=O)N3OCC[C@H]3c3cncc(C#N)c3)CC2)c1 [Compound 83, trans-5-((S)-2-(4-((3-cyano-5-fluorophenoxy)methyl)cyclohexane-1-carbonyl)isoxazolidin-3-yl)nicotinonitrile] | 34 | 23
O=C([C@H]1C[C@H](n2cnc3cc(F)ccc32)C1)N1OCC[C@H]1c1cccc(F)c1 [Compound 84, trans-(3-(5-fluoro-1H-benzo[d]imidazol-1-yl)cyclobutyl)((S)-3-(3-fluorophenyl)isoxazolidin-2-yl)methanone] | 257 | 428
Cc1ccc(OC[C@H]2CC[C@H](C(=O)N3OCC[C@H]3c3cc(F)cc(C#N)c3)CC2)cc1C(N)=O [Compound 85, trans-5-((4-((S)-3-(3-cyano-5-fluorophenyl)isoxazolidine-2-carbonyl)cyclohexyl)methoxy)-2-methylbenzamide] | 28 | 27
Cc1ccc(OC[C@H]2CC[C@H](C(=O)N3OCC[C@H]3c3cc(F)cc(F)c3)CC2)cc1C(N)=O [Compound 86, trans-5-((4-((S)-3-(3,5-difluorophenyl)isoxazolidine-2-carbonyl)cyclohexyl)methoxy)-2-methylbenzamide] | 22 | 10
O=C([C@H]1C[C@@H](n2cnc3ccc(F)cc32)C1)N1OCC[C@H]1c1cc(F)cc(F)c1 [Compound 87, cis-((S)-3-(3,5-difluorophenyl)isoxazolidin-2-yl)(3-(6-fluoro-1H-benzo[d]imidazol-1-yl)cyclobutyl)methanone] | 89 | 551
CN1CC(=O)N(c2ccc(Cl)c(OC[C@H]3CC[C@H](C(=O)N4OCC[C@H]4c4cncc(C#N)c4)CC3)c2)C1=O [Compound 88, trans-5-((S)-2-(4-((2-chloro-5-(3-methyl-2,5-dioxoimidazolidin-1-yl)phenoxy)methyl)cyclohexane-1-carbonyl)isoxazolidin-3-yl)nicotinonitrile] | 47 | 458
Cn1ccn(-c2ccc(OC[C@H]3CC[C@H](C(=O)N4OCC[C@H]4c4cncc(C#N)c4)CC3)c(F)c2)c1=O [Compound 89, trans-5-((S)-2-(4-((2-fluoro-4-(3-methyl-2-oxo-2,3-dihydro-1H-imidazol-1-yl)phenoxy)methyl)cyclohexane-1-carbonyl)isoxazolidin-3-yl)nicotinonitrile] | 18 | 13
Cc1cc(C)n(-c2ccc(OC[C@H]3CC[C@H](C(=O)N4OCC[C@H]4c4cncc(C#N)c4)CC3)c(F)c2)n1 [Compound 90, trans-5-((S)-2-(4-((4-(3,5-dimethyl-1H-pyrazol-1-yl)-2-fluorophenoxy)methyl)cyclohexane-1-carbonyl)isoxazolidin-3-yl)nicotinonitrile] | 21 | 23
N#Cc1cc(F)cc([C@@H]2CCON2C(=O)[C@H]2CC[C@H](COc3cc(C#N)ccn3)CC2)c1 [Compound 91, trans-2-[[4-[(3S)-3-(3-cyano-5-fluoro-phenyl)isoxazolidine-2-carbonyl]cyclohexyl]methoxy]pyridine-4-carbonitrile] | 14 | 39
CC1(C)OC(=O)N(c2ccc(F)c(OC[C@H]3CC[C@H](C(=O)N4OCC[C@H]4c4cncc(C#N)c4)CC3)c2)C1=O [Compound 92, trans-5-((S)-2-(4-((5-(5,5-dimethyl-2,4-dioxooxazolidin-3-yl)-2-fluorophenoxy)methyl)cyclohexane-1-carbonyl)isoxazolidin-3-yl)nicotinonitrile] | 42 | 229
N#Cc1cc(F)cc([C@@H]2CCON2C(=O)[C@H]2CC[C@H](COc3ccnc(C#N)c3)CC2)c1 [Compound 93, trans-4-[[4-[(3S)-3-(3-cyano-5-fluoro-phenyl)isoxazolidine-2-carbonyl]cyclohexyl]methoxy]pyridine-2-carbonitrile] | 18 | 13
N#Cc1cncc([C@@H]2CCON2C(=O)[C@H]2CC[C@H](COc3cc(C#N)ccn3)CC2)c1 [Compound 94, trans-5-((S)-2-(4-(((4-cyanopyridin-2-yl)oxy)methyl)cyclohexane-1-carbonyl)isoxazolidin-3-yl)nicotinonitrile] | 58 | 137
N#Cc1ccc(OC[C@H]2CC[C@H](C(=O)N3OCC[C@H]3c3cncc(C#N)c3)CC2)nc1 [Compound 95, trans-5-((S)-2-(4-(((5-cyanopyridin-2-yl)oxy)methyl)cyclohexane-1-carbonyl)isoxazolidin-3-yl)nicotinonitrile] | 15 | 35
O=C([C@H]1C[C@@H](n2ncc3cc(F)ccc32)C1)N1OCC[C@H]1c1cc(F)cc(F)c1 [Compound 96, cis-[(3S)-3-(3,5-difluorophenyl)isoxazolidin-2-yl]-[3-(5-fluoroindazol-1-yl)cyclobutyl]methanone] | 47 | 906
O=C([C@H]1C[C@H](n2ncc3cc(F)ccc32)C1)N1OCC[C@H]1c1cc(F)cc(F)c1 [Compound 97, trans-[(3S)-3-(3,5-difluorophenyl)isoxazolidin-2-yl]-[3-(5-fluoroindazol-1-yl)cyclobutyl]methanone] | 38 | 151
N#Cc1cc(F)cc([C@@H]2CCON2C(=O)[C@H]2C[C@H](n3ncc4cc(F)ccc43)C2)c1 [Compound 98, trans-3-fluoro-5-[(3S)-2-[3-(5-fluoroindazol-1-yl)cyclobutanecarbonyl]isoxazolidin-3-yl]benzonitrile] | 41 | 359
N#Cc1cncc([C@@H]2CCON2C(=O)[C@H]2CC[C@H](COc3ccc(C(N)=O)cn3)CC2)c1 [Compound 99, trans-6-[[4-[(3S)-3-(5-cyano-3-pyridyl)isoxazolidine-2-carbonyl]cyclohexyl]methoxy]pyridine-3-carboxamide] | 70 | 209
